The values below are quoted from earlier work in PMC3426641 (Biochemistry, 2012).

The first data set deals with T1, Eis_Mtb (Mycobacterium tuberculosis, UniProt P9WFK7). The following applies: TLC and NMR spectroscopy; cited from earlier work.
T1 sequence (P9WFK7 whole entry): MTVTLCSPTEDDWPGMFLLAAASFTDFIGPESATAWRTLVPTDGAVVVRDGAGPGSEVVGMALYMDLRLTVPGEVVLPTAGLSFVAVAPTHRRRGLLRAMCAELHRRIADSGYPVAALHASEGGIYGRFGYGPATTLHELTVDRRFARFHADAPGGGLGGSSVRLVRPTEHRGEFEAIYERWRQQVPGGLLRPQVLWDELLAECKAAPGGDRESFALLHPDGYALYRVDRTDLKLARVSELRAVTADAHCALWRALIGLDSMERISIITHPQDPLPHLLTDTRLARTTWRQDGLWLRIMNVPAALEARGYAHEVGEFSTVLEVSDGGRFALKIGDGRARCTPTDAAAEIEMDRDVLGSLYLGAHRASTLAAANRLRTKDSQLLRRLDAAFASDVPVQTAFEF
As for `NC[C@H]1O[C@H](O[C@H]2[C@H](O)[C@@H](O)[C@H](N)C[C@@H]2N)[C@H](N)[C@@H](O)[C@@H]1O` [NEA, neamine], the “positions acetylated (regio-specificity)” value was “first at the 2′-, then at the 6′-, and finally at the 1-position”.

In a further data set the target is T1, Eis_Mtb. The following applies: cited from earlier work.
Take kanamycin A: the “level of acetylation by Eis from M. tuberculosis” value (from here on “level of acetylation by Eis”) is “di-acetylated”.

The same data set, now with this note: number of acetylations per AG; previously reported; cited from earlier work.
In the case of `NCC[C@H](O)C(=O)N[C@@H]1C[C@H](N)[C@@H](O[C@H]2O[C@H](CN)[C@@H](O)[C@H](O)[C@H]2O)[C@H](O)[C@H]1O[C@H]1O[C@H](CO)[C@@H](O)[C@H](N)[C@H]1O` [AMK, amikacin], the “level of acetylation by Eis” value is given as “tri-acetylated”.
As for `CN[C@@H]1[C@@H](O[C@H]2O[C@H](CO)[C@@H](N)[C@H](O)[C@H]2O)OC2C[C@@H](N)[C@@H](O[C@H]3[C@H](O)[C@@H](O)[C@H](N)C[C@@H]3N)OC2[C@@H]1O` (some centres unmarked) [APR, apramycin], the “level of acetylation by Eis” value was “could not chemically modify”.
Regarding `CN[C@@H]1C[C@H](N)[C@@H](O)[C@H](O[C@H]2O[C@H](CO)[C@H](O)[C@@H]3O[C@@]4(O[C@@H]23)O[C@H]([C@H](N)CO)[C@H](O)[C@H](O)[C@H]4O)[C@H]1O` [HYG, hygromycin], the “level of acetylation by Eis” value is “di-acetylated”.
Turning to `NC[C@H]1O[C@H](O[C@H]2[C@H](O)[C@@H](O)[C@H](N)C[C@@H]2N)[C@H](N)[C@@H](O)[C@@H]1O` [NEA, neamine], the “level of acetylation by Eis” value is given as “tri-acetylated”.
For the compound `NC[C@@H]1O[C@H](O[C@H]2[C@@H](O)[C@H](O[C@@H]3[C@@H](O)[C@H](N)C[C@H](N)[C@H]3O[C@H]3O[C@H](CN)[C@@H](O)[C@H](O)[C@H]3N)O[C@@H]2CO)[C@H](N)[C@@H](O)[C@@H]1O` [NEO, neomycin B], the “level of acetylation by Eis” value is listed as “tri-acetylated”.
Turning to `CCN[C@@H]1C[C@H](N)[C@@H](O[C@H]2OC(CN)=CC[C@H]2N)[C@H](O)[C@H]1O[C@H]1OC[C@](C)(O)[C@H](NC)[C@H]1O` [NET, netilmicin], the “level of acetylation by Eis” value is on record as “di-acetylated”.
`NC[C@@H]1O[C@H](O[C@H]2[C@@H](O)[C@H](O[C@@H]3[C@@H](O)[C@H](N)C[C@H](N)[C@H]3O[C@H]3O[C@H](CO)[C@@H](O)[C@H](O)[C@H]3N)O[C@@H]2CO)[C@H](N)[C@@H](O)[C@@H]1O` [PAR, paromomycin]: the “level of acetylation by Eis” value is “di-acetylated”.
Turning to `NC[C@H]1O[C@H](O[C@H]2[C@H](O[C@@H]3O[C@H](CO)[C@@H](O)[C@H]3O)[C@@H](O)[C@H](N)C[C@@H]2N)[C@H](N)[C@@H](O)[C@@H]1O` [RIB, ribostamycin], the “level of acetylation by Eis” value is given as “tri-acetylated”.
Consider `CN[C@@H]1[C@@H](O)[C@@H](O[C@@H]2[C@@H](O)[C@H](O[C@H]3OC(CN)=CC[C@H]3N)[C@@H](N)C[C@H]2N)OC[C@]1(C)O` [SIS, sisomicin], for which the “level of acetylation by Eis” value was “tri-acetylated”.
With `CN[C@@H]1[C@H](O)[C@H](NC)[C@H]2O[C@@]3(O)C(=O)C[C@@H](C)O[C@H]3O[C@@H]2[C@H]1O` [SPT, spectinomycin], the “level of acetylation by Eis” value is listed as “not modified”.
Turning to `[H]/N=C(/N)N[C@H]1[C@H](O)[C@@H](O)[C@H](O[C@@H]2O[C@@H](C)[C@](O)(C=O)[C@H]2O[C@@H]2O[C@@H](CO)[C@H](O)[C@@H](O)[C@@H]2NC)[C@@H](N/C(N)=N\[H])[C@@H]1O` [STR, streptomycin], the “level of acetylation by Eis” value is recorded as “not modified”.
In the case of `NC[C@H]1O[C@H](O[C@H]2[C@H](O)[C@@H](O[C@H]3O[C@H](CO)[C@@H](O)[C@H](N)[C@H]3O)[C@H](N)C[C@@H]2N)[C@H](N)C[C@@H]1O` [TOB, tobramycin], the “level of acetylation by Eis” value was “tetra-acetylated”.
